This is an account of results in patent publication US20250034150A1, “BTK INHIBITORS” (BIOGEN MA INC., priority 2021, published 2025).

Where a name gives a salt, the structure may show the parent alone. Read-outs that look alike come from different tables or passages of the source.

One test concerns the target T1, BTK (Homo sapiens, UniProt Q06187).
T1 construct: purchased Upstate 14-552
Briefly: In Vitro BTK Kinase Assay: Btk-PolyGAT-LS Assay. Type of test: biochemical. The following applies: active BTK enzyme 0.25 nM, polyGAT 100 nM, 30 minutes, TRF readout; read-out: In Vitro BTK Kinase Assay IC50 Score. Summed up:
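Active BTK at 0.25 nM phosphorylated 100 nM fluorescein-polyGAT peptide at 10 μM ATP for 30 minutes. Buffer was Tris pH 7.5 with MgCl2, DTT, Triton X-100 and casein, and reactions were stopped with EDTA. Phospho-peptide was detected by Tb-PY20 antibody TR-FRET, and IC50 came from a four-parameter fit normalized to DMSO and EDTA controls.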

Test [1] relates to CD69 expression on CD19+ B cells in human whole blood. Put plainly: In Vitro whole blood CD69 Assay. The following applies: B-cell, read-out: In Vitro HWB CD69 Assay IC50 Score. It counts as cell-based. A digest of the protocol:
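Heparinized healthy-donor human whole blood was preincubated with compound (0.1% DMSO) for 30 min at 37 °C. Stimulation used 0.1 µg/mL anti-IgD-dextran or 20 µg/mL rabbit F(ab′)2 anti-IgD for 18–22 h at 37 °C. CD69 on gated CD19+ B cells was then measured by flow cytometry.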

[2] abbreviates: human heparinized whole blood, anti-human IgD stimulation overnight, CD19+ B cells, flow cytometry.

T1 sequence (Q06187 whole entry): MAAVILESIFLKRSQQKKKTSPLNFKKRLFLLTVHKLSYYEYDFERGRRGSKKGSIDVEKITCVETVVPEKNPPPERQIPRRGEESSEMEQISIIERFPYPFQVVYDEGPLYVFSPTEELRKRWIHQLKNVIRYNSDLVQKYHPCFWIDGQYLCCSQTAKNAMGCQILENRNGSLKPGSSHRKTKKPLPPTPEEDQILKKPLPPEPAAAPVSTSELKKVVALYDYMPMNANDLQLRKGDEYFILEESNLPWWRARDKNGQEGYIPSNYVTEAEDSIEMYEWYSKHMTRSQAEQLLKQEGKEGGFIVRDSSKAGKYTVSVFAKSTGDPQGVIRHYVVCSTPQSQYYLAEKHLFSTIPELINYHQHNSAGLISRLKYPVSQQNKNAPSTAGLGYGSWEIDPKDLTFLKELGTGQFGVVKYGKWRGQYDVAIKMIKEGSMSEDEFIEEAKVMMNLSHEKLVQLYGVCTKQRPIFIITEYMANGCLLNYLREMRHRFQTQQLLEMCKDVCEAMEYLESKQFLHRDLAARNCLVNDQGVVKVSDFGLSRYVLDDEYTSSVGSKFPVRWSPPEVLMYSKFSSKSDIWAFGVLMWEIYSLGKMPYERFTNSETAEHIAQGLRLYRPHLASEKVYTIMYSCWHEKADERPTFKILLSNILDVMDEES

For `CC(C)(C)c1nc(C(=O)NCc2ccc(-c3nc(N4CCOCC4)cn4nccc34)cc2)no1` [Example 23, 5-(tert-butyl)-N-(4-(6-morpholinopyrazolo[1,5-a]pyrazin-4-yl)benzyl)-1,2,4-oxadiazole-3-carboxamide], the IC50 (at BTK; in test [1] (setting [2])) was 1000 to 10000 nM throughout.
In the case of `Cn1cc(-c2cn3nccc3c(-c3ccc(CNC(=O)c4nc(C(C)(C)C)no4)c(F)c3F)n2)cn1` [Example 89, 3-(tert-butyl)-N-(2,3-difluoro-4-(6-(1-methyl-1H-pyrazol-4-yl)pyrazolo[1,5-a]pyrazin-4-yl)benzyl)-1,2,4-oxadiazole-5-carboxamide], the IC50 at BTK was less than 1 nM; in test [1] (Homo sapiens) it was less than 1000 nM.
Regarding `CC(C)(C)c1nc(C(=O)NCc2ccc(-c3nccn4nccc34)cc2Cl)no1` [Example 82, 5-(tert-butyl)-N-(2-chloro-4-(pyrazolo[1,5-a]pyrazin-4-yl)benzyl)-1,2,4-oxadiazole-3-carboxamide], the IC50 at BTK lay in the range of 1 to 10 nM; in test [1] (setting [2]), 1000 to 10000 nM.
For `CN1CCN(c2cn3nccc3c(-c3ccc(CNC(=O)c4cn(C(C)(C)C)nn4)c(F)c3)n2)CC1` [Example 128, 1-(tert-butyl)-N-(2-fluoro-4-(6-(4-methylpiperazin-1-yl)pyrazolo[1,5-a]pyrazin-4-yl)benzyl)-1H-1,2,3-triazole-4-carboxamide trifluoroacetate], in that order: 10 to 1000 nM and 1000 to 10000 nM.
For `Cc1c(CNC(=O)c2noc(C(C)(C)C)n2)ccc(-c2nc(-c3cnn(C)c3)cc3nccn23)c1F` [Example 79, 5-(tert-butyl)-N-(3-fluoro-2-methyl-4-(7-(1-methyl-1H-pyrazol-4-yl)imidazo[1,2-c]pyrimidin-5-yl)benzyl)-1,2,4-oxadiazole-3-carboxamide], in that order: less than 1 nM and less than 1000 nM.
`C[C@H]1CN(c2nc(-c3cnn(C)c3)cn3nccc23)CC[C@@H]1CNC(=O)c1noc(C2(C)CC2)n1` (single isomer, unassigned) [Example 148]: the results for the IC50 (on BTK; in test [1] (setting [2])) were 1 to 10 nM and 1000 to 10000 nM, respectively.
As to `Cn1cc(-c2cn3nccc3c(-c3ccc(CNC(=O)c4nnn(C(C)(C)C)n4)c(F)c3)n2)cn1` [Example 7, 2-(tert-butyl)-N-(2-fluoro-4-(6-(1-methyl-1H-pyrazol-4-yl)pyrazolo[1,5-a]pyrazin-4-yl)benzyl)-2H-tetrazole-5-carboxamide], the figures for the IC50 (at BTK; in test [1] (setting [2])) were less than 1 nM and less than 1000 nM, respectively.
For `Cn1cc(-c2cn3nccc3c(-c3ccc(CNC(=O)c4ccn(C(C)(C)C)n4)c(F)c3F)n2)cn1` [Example 91, 1-(tert-butyl)-N-(2,3-difluoro-4-(6-(1-methyl-1H-pyrazol-4-yl)pyrazolo[1,5-a]pyrazin-4-yl)benzyl)-1H-pyrazole-3-carboxamide], in that order: 1 to 10 nM and 1000 to 10000 nM.
For `Cn1cc(-c2cn3nccc3c(-c3ccc(CNC(=O)c4noc(C5(C)CC5)n4)c(F)c3)n2)cn1` [Example 8, N-(2-fluoro-4-(6-(1-methyl-1H-pyrazol-4-yl)pyrazolo[1,5-a]pyrazin-4-yl)benzyl)-5-(1-methylcyclopropyl)-1,2,4-oxadiazole-3-carboxamide], the IC50 was less than 1 nM at BTK and less than 1000 nM in test [1] (setting [2]).
As for `Cn1cc(-c2cn3nccc3c(N3CCC(CNC(=O)c4noc(C5(C)CC5)n4)CC3)n2)cn1` [Example 137, N-((1-(6-(1-methyl-1H-pyrazol-4-yl)pyrazolo[1,5-a]pyrazin-4-yl)piperidin-4-yl)methyl)-5-(1-methylcyclopropyl)-1,2,4-oxadiazole-3-carboxamide], the IC50 was 1 to 10 nM on BTK and 1000 to 10000 nM in test [1] (setting [2]).
Turning to `Cn1cc(-c2cn3nccc3c(-c3ccc(CNC(=O)c4nnn(C(C)(C)C)n4)cc3F)n2)cn1` [Example 114, 2-(tert-butyl)-N-(3-fluoro-4-(6-(1-methyl-1H-pyrazol-4-yl)pyrazolo[1,5-a]pyrazin-4-yl)benzyl)-2H-tetrazole-5-carboxamide], the IC50 at BTK is less than 1 nM; in test [1] (setting [2]), less than 1000 nM.
As for `Cn1cc(-c2cc(-c3ccc(CNC(=O)c4ccn(C(C)(C)C)n4)c(F)c3)c3ccnn3c2)cn1` [Example 70, 1-(tert-butyl)-N-(2-fluoro-4-(6-(1-methyl-1H-pyrazol-4-yl)pyrazolo[1,5-a]pyridin-4-yl)benzyl)-1H-pyrazole-3-carboxamide], the IC50 on BTK is 1 to 10 nM; in test [1] (setting [2]) it was 1000 to 10000 nM.
As to `Cn1cc(-c2cn3nccc3c(N3CCC(CNC(=O)c4noc(C(C)(C)C)n4)C(F)(F)C3)n2)cn1` (stereo not drawn) [Example 157, 5-(tert-butyl)-N-((3,3-difluoro-1-(6-(1-methyl-1H-pyrazol-4-yl)pyrazolo[1,5-a]pyrazin-4-yl)piperidin-4-yl)methyl)-1,2,4-oxadiazole-3-carboxamide], the values for the IC50 (at BTK; in test [1] (setting [2])) were less than 1 nM and less than 1000 nM, respectively.
For `Cn1cc(-c2cn3nccc3c(-c3ccc(CNC(=O)c4cn(C(C)(C)C)nn4)cc3)n2)cn1` [Example 4, 1-(tert-butyl)-N-(4-(6-(1-methyl-1H-pyrazol-4-yl)pyrazolo[1,5-a]pyrazin-4-yl)benzyl)-1H-1,2,3-triazole-4-carboxamide], in that order: less than 1 nM and less than 1000 nM.
Turning to `Cn1cc(-c2cn3nccc3c(-c3ccc(CNC(=O)c4nnc(C(C)(C)C)o4)c(C(F)F)c3)n2)cn1` [Example 102, 5-(tert-butyl)-N-(2-(difluoromethyl)-4-(6-(1-methyl-1H-pyrazol-4-yl)pyrazolo[1,5-a]pyrazin-4-yl)benzyl)-1,3,4-oxadiazole-2-carboxamide], the IC50 at BTK is less than 1 nM; in test [1] (setting [2]), less than 1000 nM.
As for `Cn1cc(-c2cn3nccc3c(-c3cc(F)c(CNC(=O)c4noc(C(C)(C)C)n4)cc3F)n2)cn1` [Example 84, 5-(tert-butyl)-N-(2,5-difluoro-4-(6-(1-methyl-1H-pyrazol-4-yl)pyrazolo[1,5-a]pyrazin-4-yl)benzyl)-1,2,4-oxadiazole-3-carboxamide], the IC50 on BTK is less than 1 nM; in test [1] (setting [2]) it was less than 1000 nM.
`Cn1cc(-c2cn3nccc3c(-c3ccc(CNC(=O)c4cn(C(C)(C)C)nn4)cc3F)n2)cn1` [Example 112, 1-(tert-butyl)-N-(3-fluoro-4-(6-(1-methyl-1H-pyrazol-4-yl)pyrazolo[1,5-a]pyrazin-4-yl)benzyl)-1H-1,2,3-triazole-4-carboxamide]: the IC50 was 1 to 10 nM at BTK and 1000 to 10000 nM in test [1] (setting [2]).
On to `Cn1cc(-c2cn3nccc3c(-c3cc(F)c(CNC(=O)c4nc(C(C)(C)C)no4)cc3F)n2)cn1` [Example 94, 3-(tert-butyl)-N-(2,5-difluoro-4-(6-(1-methyl-1H-pyrazol-4-yl)pyrazolo[1,5-a]pyrazin-4-yl)benzyl)-1,2,4-oxadiazole-5-carboxamide], for which the IC50 on BTK was less than 1 nM; in test [1] (setting [2]), less than 1000 nM.
For `Cc1cc(-c2nc(-c3cnn(C)c3)cn3nccc23)ccc1CN1CCN(CC(C)C)C(C)C1=O` (stereo not drawn) [Example 36, 4-isobutyl-3-methyl-1-(2-methyl-4-(6-(1-methyl-1H-pyrazol-4-yl)pyrazolo[1,5-a]pyrazin-4-yl)benzyl)piperazin-2-one], in that order: 1 to 10 nM and 1000 to 10000 nM.
For `Cc1cc(-c2nc(N3CCN(C)CC3)cn3nccc23)ccc1CNC(=O)c1cn(C(C)(C)C)nn1` [Example 121, 1-(tert-butyl)-N-(2-methyl-4-(6-(4-methylpiperazin-1-yl)pyrazolo[1,5-a]pyrazin-4-yl)benzyl)-1H-1,2,3-triazole-4-carboxamide trifluoroacetate], the IC50 on BTK was in the range of 10 to 1000 nM; in test [1] (setting [2]) it was 1000 to 10000 nM.
As to `Cn1cc(-c2cn3ncnc3c(N3CCC(CNC(=O)c4cn(C(C)(C)C)nn4)CC3)n2)cn1` [Example 74, 1-(tert-butyl)-N-((1-(6-(1-methyl-1H-pyrazol-4-yl)-[1,2,4]triazolo[1,5-a]pyrazin-8-yl)piperidin-4-yl)methyl)-1H-1,2,3-triazole-4-carboxamide], the figures for the IC50 (on BTK; in test [1] (setting [2])) were 10 to 1000 nM and 1000 to 10000 nM, respectively.
For `Cc1cc(-c2nc(-c3cnn(C)c3)cn3nccc23)ccc1CN1CCN(CC(C)C)CC1=O` [Example 30, 4-isobutyl-1-(2-methyl-4-(6-(1-methyl-1H-pyrazol-4-yl)pyrazolo[1,5-a]pyrazin-4-yl)benzyl)piperazin-2-one], the IC50 on BTK fell in the range of 1 to 10 nM; in test [1] (setting [2]) it was 1000 to 10000 nM.
For the molecule `Cn1cc(-c2cn3nccc3c(-c3ccc4c(c3)CN(C3COC3)CC[C@H]4NC(=O)c3cn(C(C)(C)C)nn3)n2)cn1` [Example 39, 1-tert-butyl-N-[(5R)-8-[6-(1-methylpyrazol-4-yl)pyrazolo[1,5-a]pyrazin-4-yl]-2-(oxetan-3-yl)-1,3,4,5-tetrahydro-2-benzazepin-5-yl]triazole-4-carboxamide], the IC50 on BTK was less than 1 nM; in test [1] (setting [2]) it was less than 1000 nM.
For `Cn1cc(-c2cn3nccc3c(N3CC[C@H](CNC(=O)c4noc(C5(C)CC5)n4)[C@H](F)C3)n2)cn1` [Example 154, N-(((3S,4R)-3-fluoro-1-(6-(1-methyl-1H-pyrazol-4-yl)pyrazolo[1,5-a]pyrazin-4-yl)piperidin-4-yl)methyl)-5-(1-methylcyclopropyl)-1,2,4-oxadiazole-3-carboxamide], the IC50 is 10 to 1000 nM on BTK and 1000 to 10000 nM in test [1] (setting [2]).
